The values that follow are results of earlier work, collected in patent US9334250B2, “Multifunctional radical quenchers for the treatment of mitochondrial dysfunction” (Arizona Board of Regents, A Body Corporate of the State of …, priority 2012, dated 2016).

For this series the following is noted: James et al. (2005) J Biol. Chem. 280, 21295-21312.

With `COC1=C(OC)C(=O)C(C/C=C(\C)CC/C=C(\C)CC/C=C(\C)CC/C=C(\C)CC/C=C(\C)CC/C=C(\C)CC/C=C(\C)CC/C=C(\C)CC/C=C(\C)CCC=C(C)C)=C(C)C1=O` [coenzyme Q10], the calculated octanol-water partition coefficient is > 1e+20.
